For the experiment, the system named is MV-4-11 cells. Kind of experiment: Cell Viability Assay in MV-4-11 Cells. It is filed as cell-based. Conditions: Homo sapiens, MV4-11, 72 h, MV-4-11 cells, 72 h, Cell-Titer Glo; read-out: IC50. In outline: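 MV-4-11 cells at 7,000/well in IMDM with 10% FBS, exposed to compound for 72 h. Viability by CellTiter-Glo luminescence, normalized to DMSO as 100%, fitted with a four-parameter curve.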
Regarding `CCc1nnc(-c2ccc(C(=O)N(c3nccc4cc(Cl)cc(C)c34)[C@@H]3CCCNC3)c(F)c2)s1` [Example 700, (R)—N-(6-chloro-8-methylisoquinolin-1-yl)-4-(5-ethyl-1,3,4-thiadiazol-2-yl)-2-fluoro-N-(piperidin-3-yl)benzamide], the IC50 was found to be 0.21 µM.

On to `Cc1cc(C)c2c(N(C(=O)c3ccc(-c4nnc(C)s4)cn3)[C@@H]3CCCNC3)nccc2c1` [Example 701, (R)—N-(6,8-dimethylisoquinolin-1-yl)-5-(5-methyl-1,3,4-thiadiazol-2-yl)-N-(piperidin-3-yl)picolinamide], for which the IC50 came out at 0.15 µM.

With `Cc1cc(C)c2c(N(C(=O)c3ccc(-c4cn(C)nn4)cc3F)[C@@H]3CCCNC3)nccc2c1` [Example 702, (R)—N-(6,8-dimethylisoquinolin-1-yl)-2-fluoro-4-(1-methyl-1H-1,2,3-triazol-4-yl)-N-(piperidin-3-yl)benzamide], the IC50 is 0.025 µM.

For the compound `Cc1cc(C)c2c(N(C(=O)c3ccc(-c4cn(C)nn4)cn3)[C@@H]3CCCNC3)nccc2c1` [Example 703, (R)—N-(6,8-dimethylisoquinolin-1-yl)-5-(1-methyl-1H-1,2,3-triazol-4-yl)-N-(piperidin-3-yl)picolinamide], the half-inhibitory concentration (IC50) was 0.06 µM.

Turning to `CCn1cc(-c2ccc(C(=O)N(c3nccc4scc(C)c34)[C@@H]3CCCNC3)c(F)c2)nn1` [Example 704, (R)-4-(1-ethyl-1H-1,2,3-triazol-4-yl)-2-fluoro-N-(3-methylthieno[3,2-c]pyridin-4-yl)-N-(piperidin-3-yl)benzamide], the half-inhibitory concentration (IC50) was found to be 0.079 µM.

Take `Cc1cc(-c2cn(C)nn2)ccc1C(=O)N(c1nccc2cccc(C)c12)C1CCCNC1` (stereo not shown) [Example 705, 2-methyl-4-(1-methyl-1H-1,2,3-triazol-4-yl)-N-(8-methylisoquinolin-1-yl)-N-(piperidin-3-yl)benzamide]: the concentration for half-maximal inhibition (IC50) is 0.51 µM.

`COc1cc(C(=O)N(c2nccc3cc(Cl)cc(C)c23)[C@@H]2CCCNC2)ccc1-c1nnc(C)s1` [Example 706, (R)—N-(6-chloro-8-methylisoquinolin-1-yl)-3-methoxy-4-(5-methyl-1,3,4-thiadiazol-2-yl)-N-(piperidin-3-yl)benzamide]: the IC50 amounted to 0.42 µM.

Take `Cc1nnc(-c2ccc(C(=O)N(c3nccc4cc(Cl)cc(C)c34)[C@@H]3CCCNC3)cc2C)s1` [Example 707, (R)—N-(6-chloro-8-methylisoquinolin-1-yl)-3-methyl-4-(5-methyl-1,3,4-thiadiazol-2-yl)-N-(piperidin-3-yl)benzamide]: the IC50 came out at 0.47 µM.

Consider `Cc1nnc(-c2ccc(C(=O)N(c3nccc4cc(Cl)cc(C)c34)[C@@H]3CCCNC3)cc2F)s1` [Example 708, (R)—N-(6-chloro-8-methylisoquinolin-1-yl)-3-fluoro-4-(5-methyl-1,3,4-thiadiazol-2-yl)-N-(piperidin-3-yl)benzamide], for which the half-maximal inhibitory concentration (IC50) turned out to be 0.16 µM.

Take `Cc1nnc(-c2ccc(C(=O)N(c3nccc4cc(Cl)cc(C)c34)[C@@H]3CCCNC3)cn2)s1` [Example 709, (R)—N-(6-chloro-8-methylisoquinolin-1-yl)-6-(5-methyl-1,3,4-thiadiazol-2-yl)-N-(piperidin-3-yl)nicotinamide]: the IC50 was determined as 0.08 µM.

Consider `COc1nnc(-c2ccc(C(=O)N(c3nccc4cc(F)cc(C)c34)[C@@H]3CCCNC3)c(F)c2)s1` [Example 710, 2-fluoro-N-(6-fluoro-8-methyl-1-isoquinolyl)-4-(5-methoxy-1,3,4-thiadiazol-2-yl)-N-[(3R)-3-piperidyl]benzamide], for which the IC50 was found to be 2.3 µM.

Turning to `CCn1cc(-c2ccc(C(=O)N(c3nccc4cc(Cl)cc(C)c34)[C@@H]3CCCNC3)c(F)c2)nn1` [Example 711, N-(6-chloro-8-methyl-1-isoquinolyl)-4-(1-ethyltriazol-4-yl)-2-fluoro-N-[(3R)-3-piperidyl] benzamide], the concentration for half-maximal inhibition (IC50) came out at 0.074 µM.

On to `CCn1cc(-c2ccc(C(=O)N(c3nccc4cc(F)cc(C)c34)[C@@H]3CCCNC3)c(F)c2)nn1` [Example 712, 4-(1-ethyltriazol-4-yl)-2-fluoro-N-(6-fluoro-8-methyl-1-isoquinolyl)-N-[(3R)-3-piperidyl]benzamide], for which the half-maximal inhibitory concentration (IC50) was found to be 0.053 µM.

Consider `CCN1CCN(c2ccnc(Nc3ccc(C(=O)N(c4nccc5cccc(C)c45)[C@@H]4CCCNC4)c(F)c3)n2)CC1` [Example 713, (R)-4-((4-(4-ethylpiperazin-1-yl)pyrimidin-2-yl)amino)-2-fluoro-N-(8-methylisoquinolin-1-yl)-N-(piperidin-3-yl)benzamide], for which the IC50 was found to be 0.082 µM.

Turning to `Cc1cccc2ccnc(N(C(=O)c3ccc(Nc4nccc(N5CCC(N(C)C)CC5)n4)cc3F)[C@@H]3CCCNC3)c12` [Example 714, (R)-4-((4-(4-(dimethylamino)piperidin-1-yl)pyrimidin-2-yl)amino)-2-fluoro-N-(8-methylisoquinolin-1-yl)-N-(piperidin-3-yl)benzamide], the 50% inhibitory concentration (IC50) worked out at 0.23 µM.

`Cc1cccc2ccnc(N(C(=O)c3ccc(Nc4nccc(N5CCC(N6CCCC6)CC5)n4)cc3F)[C@@H]3CCCNC3)c12` [Example 715, (R)-2-fluoro-N-(8-methylisoquinolin-1-yl)-N-(piperidin-3-yl)-4-((4-(4-(pyrrolidin-1-yl)piperidin-1-yl)pyrimidin-2-yl)amino)benzamide]: the half-maximal inhibitory concentration (IC50) was 0.23 µM.

For the compound `COC1CCN(c2ccnc(Nc3ccc(C(=O)N(c4nccc5cccc(C)c45)[C@@H]4CCCNC4)c(F)c3)n2)CC1` [Example 716, (R)-2-fluoro-4-((4-(4-methoxypiperidin-1-yl)pyrimidin-2-yl)amino)-N-(8-methylisoquinolin-1-yl)-N-(piperidin-3-yl)benzamide], the IC50 came to 0.034 µM.

As to `Cc1cccc2ccnc(N(C(=O)c3ccc(Nc4nccc(N5CCC(O)CC5)n4)cc3F)[C@@H]3CCCNC3)c12` [Example 717, (R)-2-fluoro-4-((4-(4-hydroxypiperidin-1-yl)pyrimidin-2-yl)amino)-N-(8-methylisoquinolin-1-yl)-N-(piperidin-3-yl)benzamide], the IC50 turned out to be 0.03 µM.

As to `Cc1cccc2ccnc(N(C(=O)c3ccc(Nc4nccc(N5CCNCC5)n4)cc3F)[C@@H]3CCCNC3)c12` [Example 718, (R)-2-fluoro-N-(8-methylisoquinolin-1-yl)-4-((4-(piperazin-1-yl)pyrimidin-2-yl)amino)-N-(piperidin-3-yl)benzamide], the 50% inhibitory concentration (IC50) came to 0.18 µM.

Turning to `Cc1cccc2ccnc(N(C(=O)c3ccc(Nc4nccc(N5CCC(=O)CC5)n4)cc3F)[C@@H]3CCCNC3)c12` [Example 719, (R)-2-fluoro-N-(8-methylisoquinolin-1-yl)-4-((4-(4-oxopiperidin-1-yl)pyrimidin-2-yl)amino)-N-(piperidin-3-yl)benzamide], the IC50 turned out to be 0.014 µM.

Consider `Cc1cccc2ccnc(N(C(=O)c3ccc(Nc4nccc(-c5ccc(N)nc5)n4)cc3F)[C@@H]3CCCNC3)c12` [Example 720, (R)-4-((4-(6-aminopyridin-3-yl)pyrimidin-2-yl)amino)-2-fluoro-N-(8-methylisoquinolin-1-yl)-N-(piperidin-3-yl)benzamide], for which the 50% inhibitory concentration (IC50) stood at 0.055 µM.

Regarding `Cc1cccc2ccnc(N(C(=O)c3ccc(Nc4nccc(-c5ccc(O)cc5)n4)cc3F)[C@@H]3CCCNC3)c12` [Example 721, (R)-2-fluoro-4-((4-(4-hydroxyphenyl)pyrimidin-2-yl)amino)-N-(8-methylisoquinolin-1-yl)-N-(piperidin-3-yl)benzamide], the IC50 amounted to 0.14 µM.

As a reminder, the IC50 is the concentration at which inhibition is half-maximal.
